According to paper PMC7917936, “Synthesis and Self-Assembly Properties of Bola-Amphiphilic Glycosylated Lipopeptide-Type Supramolecular Hydrogels Showing Colour Changes Along with Gel–Sol Transition” (International Journal of Molecular Sciences, 2021):

Experiment: Measurement of the gel–sol transition temperature (Tgel), vial inversion method
Assay type: physicochemical
Conditions: hydrogel at CGC (0.19 wt%), 200 mM HEPES–NaOH buffer (pH 8.0), oil bath 25 to 85 °C, 1 °C/step, 1 min per step
Method: The gel–sol phase transition behaviour of the βGal–AAC–C6–F3 hydrogel (0.19 wt% (CGC) in 200 mM HEPES–NaOH buffer (pH 8.0)) was determined using the vial inversion method. The inverted gel in the vial was placed in an oil bath, which was heated from 25 °C to 85 °C, at a rate of 1 °C/step. The vial was immersed at each temperature for 1 min to equilibrate. The temperature, at which the sample completely dissolved, was defined as the Tgel value of the gel.

## O=C(CCCCCCN1C(=O)C(Cl)=C(Nc2ccc(O[C@@H]3O[C@H](CO)[C@H](O)[C@H](O)[C@H]3O)cc2)C1=O)N[C@@H](Cc1ccccc1)C(=O)N[C@@H](Cc1ccccc1)C(=O)N[C@@H](Cc1ccccc1)C(=O)O [βGal–AAC–C6–F3]
  Tgel (gel-to-sol phase transition temperature): 78 °C
